Among the data in PubChem BioAssay (NCI) are TGI and GI50 values, retold here.

Common to all, as to assay: growth of human tumour cells (NCI), 48 h
For experiment [1], the system named is DMS 114 small cell lung.
Experiment [2] relates to DMS 273 small cell lung.
The subject of experiment [3] is LXFL 529 NSCLC.
Experiment [4] relates to M19-MEL melanoma.
Experiment [5] has as its system SNB-78 CNS.
For experiment [6], the system named is RXF-631 renal.
Experiment [7] concerns XF 498 CNS.
Experiment [8] has as its system MDA-N.
Experiment [9] concerns HOP-18 NSCLC.

Where “and” joins values, the source holds several entries; their conditions need not be identical. Equal entries are not always repeated.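 1) Cells in 96-well plates. 2) Compound, 48 h, 5 concentrations. 3) Linear interpolation between surrounding doses. 4) Unreached endpoint = highest concentration. Here, GI50 denotes the concentration required for 50% inhibition of growth. Definition used: TGI = concentration required for complete inhibition of growth.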

`O=c1cc2n(c(=O)[nH]1)C1OC(C(O)C1O)[C@H]2CCO` (stereo partly specified): the TGI in experiment [1], in [2], in [3], in experiment [4] and in [5] was over 100 µM throughout.
On to `COCC1C(=O)c2cc3c(cc2C12C=CC1(C=C2)OCCO1)OCO3` (stereo unspecified), for which the TGI in [1] came to 11.6 µM; in experiment [2], 29.9 µM; in experiment [3], 9.82 µM; in [4], 14.7 µM; in experiment [6], 27.7 µM; in [7] it was 17.9 µM.
In experiment [8], `CC(=O)Oc1ccc2ccc(=O)oc2c1OC(C)=O` registered a TGI of over 100 µM.
With `C[N+](C)(C)CCC(=O)N1C/C(=C\c2ccccc2)C(=O)/C(=C/c2ccccc2)C1`, the TGI in [1] is over 22.3 µM; in experiment [2], 5.33 µM; in [9], 26.7 µM; in experiment [3], 13.5 µM; in experiment [4], 15.5 µM; in experiment [8] it was 3.36 µM. The TGI came out at 22.9 µM in [5] and 27.6 µM in experiment [7].
Take `O=S(=O)(O)c1ccc(Cl)cc1.[Cd]`: in [8], the GI50 is 22.1 µM and the TGI was determined as 68.9 µM.
In experiment [8], `COc1ccc2c(CC(=O)O)cc(=O)oc2c1` returned a TGI of over 100 µM.
As to `Nc1nc(=O)n(C2CC(O)C(O)C(CO)O2)cc1F` (stereo unspecified), the TGI in [1], in experiment [9], in [3], in experiment [4], in experiment [6] and in [5] was over 100 µM each time. For the same compound, the TGI in [7] is over 100 µM.
On to `C/C(=N\Nc1ccc2ccccc2n1)c1ccccc1O`, for which the TGI in experiment [8] is over 100 µM.
`COC(=O)CCC(=O)CC(=O)C(=O)Nc1ccc(F)cc1`: the TGI in experiment [1], in experiment [2], in experiment [9], in experiment [3], in experiment [4] and in experiment [5] was over 100 µM each time.
Turning to `O=C(Nc1ccc(Cl)c(Cl)c1)C(=O)Nn1c(=S)[nH]c2ccccc2c1=O`, the TGI in [1], in [2], in experiment [9], in experiment [3], in experiment [4] and in [5] was over 100 µM in each case. In [7], this compound yielded a TGI of over 100 µM.
Consider `O=C(CC1(O)C(=O)Nc2c(Cl)cccc21)c1ccccc1` (stereo unspecified), for which the TGI in experiment [1], in [2], in experiment [9], in [3], in experiment [5] and in experiment [7] was over 100 µM throughout.
Turning to `Cc1cc2cc(Cl)ccc2nc1C(=O)c1ccccc1`, the TGI in experiment [1], in experiment [2], in experiment [9], in experiment [3], in experiment [4] and in [6] was over 100 µM throughout. In addition, the TGI in experiment [5] and in [7] was over 100 µM in each case.
With `COc1ccc(CN2C(=O)C(Cc3cc(OC)c(OC)c(C)c3OC)N(C(=O)OC(C)C)C(=O)/C2=C/c2cc(OC)c(OC)c(C)c2OC)cc1` (stereo unspecified), the TGI in experiment [1], in [2], in [9], in experiment [3], in [4] and in experiment [6] was over 100 µM in each case.
On to `Cc1cc2c(cc1C)N1Cc3c(ccc(C)c3C)N(C2)C1` (tested in a mixture with another compound), for which the TGI in experiment [1], in [2], in experiment [9], in experiment [3], in [4] and in experiment [5] was over 100 µM throughout. The TGI in experiment [7] is over 100 µM.
Take `CCOc1cc(C=O)c2c(ccc3ccc(OC)c(OC)c32)c1OC`: the TGI in experiment [8] was over 100 µM.
`O=c1oc2c3ccc4ccccc4c3n(CCN3CCOCC3)c2c2ccccc12`: the TGI in experiment [1], in experiment [9], in [3] and in experiment [4] was over 100 µM throughout.
On to `CC1(C)CC(=O)C(C(c2cccc(O)c2O)C2C(=O)CC(C)(C)CC2=O)C(=O)C1`, for which the TGI in experiment [8] is over 100 µM.
For `COc1ccc(C(=O)C(c2ccc(OC)cc2)C2C(=O)Oc3ccccc32)cc1` (stereo unspecified), the GI50 in experiment [1], in experiment [2], in [3], in experiment [4] and in [7] was over 100 µM each time. Besides, the TGI in experiment [1], in experiment [2], in experiment [9], in [3], in experiment [4] and in experiment [5] was over 100 µM each time. Further, the TGI in [7] was over 100 µM.
For the compound `Cc1cc(Cl)ccc1NC(=O)/C(Cl)=C(/Cl)C(=O)O`, the TGI in experiment [8] was 60.9 µM.
For `COc1cc(C2c3cc4c(cc3[C@H](NC(=O)c3cccs3)C3COC(=O)[C@H]23)OCO4)cc(OC)c1OC` (stereo partly specified), the TGI in experiment [2] was over 100 µM; in experiment [9], over 100 µM; in experiment [3], 47.2 µM; in [5] it was over 100 µM.
Consider `O=C1OC(c2ccccc2)C2CC3CC4(CCC3CN12)OCCO4` (stereo unspecified), for which the TGI in [2], in [3], in experiment [6], in experiment [5] and in [7] was over 100 µM throughout.
Consider `COc1ccc2nc3cc(Cl)ccc3c(NCCC(=O)OCC(O)C(O)C(O[C@H](C)C(=O)NC(C)C(=O)NC(CCC(N)=O)C(=O)OCc3ccccc3)C(C=O)NC(C)=O)c2c1` (stereo partly specified), for which the TGI in experiment [2] is 27.6 µM; in experiment [3] it was 31.2 µM; in experiment [4], 34.4 µM; in experiment [6], 36.9 µM; in experiment [5], 80.8 µM; in [7], 33.5 µM.
Take `NC(=O)c1nnn(Cc2cc(Cl)c(C(=O)c3ccc(Cl)cc3)c(Cl)c2)c1N`: the GI50 is 3.36 µM in experiment [1]; 5.77 µM in experiment [2]; 21.7 µM in [9]; 14.1 µM in experiment [4]; 19 µM in experiment [5]; 10.8 µM in experiment [7]. For the same compound, the TGI in experiment [1] is > 9.09 µM and 23.3 µM; in experiment [2], > 9.09 µM and 21.2 µM; in [9] it was > 9.09 µM and 36.4 µM; in experiment [3] it was > 9.09 µM and 21.1 µM; in experiment [4] it was > 9.09 µM and 27.4 µM; in [8], over 46.9 µM. Also, the TGI in [6] is 53.9 µM; in experiment [5], > 9.09 µM and 52.2 µM; in experiment [7], > 9.09 µM and 22.9 µM.
Take `COc1ccc(C(=O)/C(=N/Nc2ccccc2)c2ccc(OC)cc2)cc1`: the TGI in experiment [1], in [2], in experiment [9], in experiment [3], in experiment [4] and in [6] was over 100 µM each time. The TGI in experiment [5] and in experiment [7] was over 100 µM in each case.
For the compound `Cc1cc(C)nc(NS(=O)(=O)c2ccc(NC(=O)c3cccc4c(Nc5ccc(S(=O)(=O)Nc6nc(C)cc(C)n6)cc5)c5ccccc5nc34)cc2)n1`, the TGI is 38.9 µM in experiment [2]; 29.7 µM in experiment [9]; 70.3 µM in [3]; over 100 µM in experiment [4]; 42.6 µM in experiment [6]; over 100 µM in [5]. Moreover, in experiment [7], the TGI amounted to 79.7 µM.
In the case of `O=C(O)CNC(=O)c1ccccc1O`, in [8], the TGI was over 100 µM.
For the compound `CN(C)c1ccc(/C=C/C(=O)c2ccccc2)cc1Br`, the TGI worked out at 36.9 µM in experiment [1], 28.8 µM in experiment [3], 37.1 µM in [4] and 31.2 µM in experiment [7].
Consider `CC1(C)CC(=O)C2=C(C1)NC(SSC1=C(C#N)C(c3ccc(Br)cc3)C3=C(CC(C)(C)CC3=O)N1)=C(C#N)C2c1ccc(Br)cc1` (stereo unspecified), for which, in [8], the GI50 is 45.9 mg/L; the TGI is > 100 µM and 150 µg/mL.
Consider `COc1c(OC(C)=O)c(OC(C)=O)cc2c1-c1ccc(OC)c(=O)cc1C(NC(C)=O)CC2` (stereo unspecified), for which the TGI was 0.121 µM in experiment [1]; over 100 µM in experiment [9]; over 53 µM in experiment [3]; over 100 µM in experiment [4]; 18.2 µM in experiment [6]; over 100 µM in [5]. This compound showed a TGI in [7] of 16.2 µM.
`COc1ccc2nc3cccc([N+](=O)[O-])c3c(NCCN(CCO)CCO)c2c1`: in [8], the GI50 was 0.023 µM and the TGI was determined as 0.0769 µM.
As to `C[C@]12CCC3[C@@H](C[C@H]4OC(=O)[C@@]35CCC(=O)C=C45)C1CCC2=O` (stereo partly specified), the TGI in [1], in experiment [9], in [3], in experiment [4] and in experiment [7] was over 100 µM in each case.
With `CCOC(=O)NC(=O)c1cn(CCCCCOC(=O)NCCCCCCNC(=O)OCCCCCn2cc(C(=O)NC(=O)OCC)c(=O)[nH]c2=O)c(=O)[nH]c1=O`, the TGI in experiment [1], in [2], in experiment [9], in experiment [3], in experiment [4] and in [5] was over 100 µM throughout.
`CN(C)c1ccccc1CC(c1c[nH]c2ccccc12)c1c[nH]c2ccccc12`: the TGI in experiment [1] amounted to 20.4 µM; in [2], 27.9 µM; in experiment [4] it was 29.1 µM; in [5], 32.5 µM; in [7], 31.5 µM.
On to `N#Cc1ccc(/C=N\N2C(=O)c3ccccc3C2=O)cc1`, for which the TGI in experiment [1], in experiment [2], in experiment [9], in experiment [3], in experiment [4] and in experiment [5] was over 100 µM each time. Moreover, the TGI in [7] is over 100 µM.
In experiment [8], `O=C(O)CN(CC(=O)O)Cc1cc2c(cc1O)Oc1cc(O)c(CN(CC(=O)O)CC(=O)O)cc1C21OC(=O)c2ccccc21` gave a TGI of over 100 µM.
Consider `O=C1C(c2ccc([N+](=O)[O-])cc2)=[N+]([O-])c2ccccc21`, for which the TGI in experiment [1] is 27.1 µM; in [9] it was 26.5 µM; in [3], over 100 µM; in [4] it was 41.5 µM; in experiment [5] it was 61.1 µM.
In turn, `CSC(=S)N/N=C/c1ccccc1` registered a TGI in experiment [8] of over 100 µM.
For the compound `O=c1c2cc(Br)ccc2[nH]c(=S)n1-c1ccc(Br)cc1`, the TGI in experiment [1], in experiment [9], in experiment [3], in experiment [4] and in experiment [5] was over 100 µM throughout.
